Experiment in all cases: biochemical
Common to all, as to set-up: Eurofins KinaseProfiler full panel at Km ATP, residual kinase activity (%) relative to DMSO

One experiment addresses T1, CK1α(h) (Homo sapiens, UniProt P48729).
T1 construct: gene CSNK1A1
The gist of the method: (§1)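 Two 10 µM single-concentration screens were run: a competition-binding screen, in which DNA-tagged kinase bound to immobilized ligands was quantified by qPCR, and a radiometric activity panel at Km ATP. Each is expressed as residual kinase activity (%).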

For a further experiment, the target named is T2, Abl (M351T)(h) (Homo sapiens, UniProt P00519, M351T).
T2 construct: gene ABL1
The gist of the method: as §1

A further experiment has as its target T3, CDK5/p25(h) (Homo sapiens, UniProt Q00535).
T3 construct: p25
The gist of the method: as §1

The target in the next experiment is T4, MuSK(h) (Homo sapiens, UniProt O15146).
T4 sequence (O15146 1-869): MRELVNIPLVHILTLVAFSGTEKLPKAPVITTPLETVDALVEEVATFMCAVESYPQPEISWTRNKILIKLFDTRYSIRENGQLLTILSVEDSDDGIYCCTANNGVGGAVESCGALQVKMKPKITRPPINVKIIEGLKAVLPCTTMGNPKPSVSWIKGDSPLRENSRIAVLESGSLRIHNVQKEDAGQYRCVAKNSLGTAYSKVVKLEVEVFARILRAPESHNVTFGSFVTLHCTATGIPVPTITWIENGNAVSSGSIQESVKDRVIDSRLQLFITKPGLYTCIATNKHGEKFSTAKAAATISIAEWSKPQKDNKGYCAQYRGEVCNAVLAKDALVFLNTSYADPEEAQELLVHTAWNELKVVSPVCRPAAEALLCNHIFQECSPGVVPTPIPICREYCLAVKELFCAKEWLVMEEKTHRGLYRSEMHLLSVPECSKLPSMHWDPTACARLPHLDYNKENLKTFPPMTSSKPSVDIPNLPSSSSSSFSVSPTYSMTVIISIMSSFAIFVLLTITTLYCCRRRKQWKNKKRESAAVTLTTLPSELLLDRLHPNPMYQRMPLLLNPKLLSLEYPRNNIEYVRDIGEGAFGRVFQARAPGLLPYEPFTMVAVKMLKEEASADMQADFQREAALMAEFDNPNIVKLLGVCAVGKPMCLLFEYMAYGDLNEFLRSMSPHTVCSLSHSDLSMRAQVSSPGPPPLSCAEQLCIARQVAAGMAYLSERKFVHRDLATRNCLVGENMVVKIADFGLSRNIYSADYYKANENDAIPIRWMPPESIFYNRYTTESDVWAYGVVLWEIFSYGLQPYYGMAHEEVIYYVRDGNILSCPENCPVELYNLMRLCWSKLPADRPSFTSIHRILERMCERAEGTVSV
The gist of the method:
as §1

The target of the next experiment is MARK3(h) (Homo sapiens, UniProt P27448). The gist of the method: as §1
Sequence of MARK3(h) (P27448 whole entry): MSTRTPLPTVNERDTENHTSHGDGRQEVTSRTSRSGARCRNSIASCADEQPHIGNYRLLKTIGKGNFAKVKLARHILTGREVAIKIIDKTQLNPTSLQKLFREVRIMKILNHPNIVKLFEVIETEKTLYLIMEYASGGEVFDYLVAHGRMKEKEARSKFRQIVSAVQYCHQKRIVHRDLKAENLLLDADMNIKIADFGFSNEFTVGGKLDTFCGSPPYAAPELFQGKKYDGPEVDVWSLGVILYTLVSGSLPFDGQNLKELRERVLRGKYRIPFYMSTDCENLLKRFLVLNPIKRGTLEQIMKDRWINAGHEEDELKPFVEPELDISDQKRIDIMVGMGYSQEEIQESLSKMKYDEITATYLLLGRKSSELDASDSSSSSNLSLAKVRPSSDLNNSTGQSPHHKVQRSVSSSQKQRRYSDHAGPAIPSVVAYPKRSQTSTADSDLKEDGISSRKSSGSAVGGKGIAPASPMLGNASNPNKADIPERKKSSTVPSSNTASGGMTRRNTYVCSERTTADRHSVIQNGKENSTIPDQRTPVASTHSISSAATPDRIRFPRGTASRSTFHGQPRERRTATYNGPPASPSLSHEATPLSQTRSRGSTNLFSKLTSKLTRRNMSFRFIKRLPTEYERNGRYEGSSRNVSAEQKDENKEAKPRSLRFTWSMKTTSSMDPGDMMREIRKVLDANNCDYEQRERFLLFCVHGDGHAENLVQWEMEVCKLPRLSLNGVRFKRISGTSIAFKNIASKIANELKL
In another experiment the target is MELK(h) (Homo sapiens, UniProt Q14680). The gist of the method:
as §1

Another experiment deals with CDK12/cyclinK(h) (Homo sapiens, UniProt Q9NYV4). The gist of the method: as §1
The target in the next experiment is PIP5K1a(h) (Homo sapiens, UniProt Q99755). The essentials:
as §1

Another experiment addresses T5, PKG1β(h) (Homo sapiens, UniProt Q13976).
T5 construct: gene PRKG1; isoform 1beta
T5 sequence (Q13976 1-671): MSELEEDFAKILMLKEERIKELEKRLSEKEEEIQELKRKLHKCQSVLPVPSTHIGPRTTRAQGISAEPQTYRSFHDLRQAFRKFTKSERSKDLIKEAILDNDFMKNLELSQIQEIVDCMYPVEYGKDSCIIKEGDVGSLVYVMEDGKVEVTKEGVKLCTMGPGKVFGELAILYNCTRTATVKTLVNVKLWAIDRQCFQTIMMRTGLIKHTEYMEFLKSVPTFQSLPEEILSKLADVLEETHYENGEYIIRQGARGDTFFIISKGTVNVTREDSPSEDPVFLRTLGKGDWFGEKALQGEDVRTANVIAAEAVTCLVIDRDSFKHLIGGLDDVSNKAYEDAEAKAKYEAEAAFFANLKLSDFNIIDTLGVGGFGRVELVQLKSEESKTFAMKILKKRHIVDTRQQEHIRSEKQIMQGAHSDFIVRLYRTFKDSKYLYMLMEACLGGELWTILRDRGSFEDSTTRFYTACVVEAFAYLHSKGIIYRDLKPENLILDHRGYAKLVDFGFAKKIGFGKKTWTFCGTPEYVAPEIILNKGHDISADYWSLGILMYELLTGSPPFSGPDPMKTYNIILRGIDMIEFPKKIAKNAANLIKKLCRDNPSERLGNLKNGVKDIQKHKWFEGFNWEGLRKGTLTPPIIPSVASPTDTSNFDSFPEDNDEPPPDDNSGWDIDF
The essentials: as §1

Another experiment has as its target CaMKK1(h) (Homo sapiens, UniProt Q8N5S9). The essentials:
as §1

[1] abbreviates: read-out: Residual activity (%) Spautin-1 5aa.
The mark [2] stands for this setting: read-out: Residual activity (%) 5as.
Setting [3] is: read-out: Residual activity (%) 5at.
[4] abbreviates: read-out: Residual activity (%) 5ay.

Read-outs that look alike come from different tables or passages of the source.

T1 sequence (P48729 whole entry): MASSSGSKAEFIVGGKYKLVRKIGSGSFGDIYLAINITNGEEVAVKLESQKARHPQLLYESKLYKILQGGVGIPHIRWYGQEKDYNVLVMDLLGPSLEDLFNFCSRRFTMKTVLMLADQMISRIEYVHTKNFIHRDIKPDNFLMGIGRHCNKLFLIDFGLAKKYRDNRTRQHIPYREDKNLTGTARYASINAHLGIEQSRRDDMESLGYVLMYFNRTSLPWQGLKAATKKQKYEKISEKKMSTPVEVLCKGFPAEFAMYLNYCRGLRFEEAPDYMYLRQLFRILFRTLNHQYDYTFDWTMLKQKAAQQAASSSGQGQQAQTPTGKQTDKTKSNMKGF
Sequence of CaMKK1(h) (Q8N5S9 whole entry): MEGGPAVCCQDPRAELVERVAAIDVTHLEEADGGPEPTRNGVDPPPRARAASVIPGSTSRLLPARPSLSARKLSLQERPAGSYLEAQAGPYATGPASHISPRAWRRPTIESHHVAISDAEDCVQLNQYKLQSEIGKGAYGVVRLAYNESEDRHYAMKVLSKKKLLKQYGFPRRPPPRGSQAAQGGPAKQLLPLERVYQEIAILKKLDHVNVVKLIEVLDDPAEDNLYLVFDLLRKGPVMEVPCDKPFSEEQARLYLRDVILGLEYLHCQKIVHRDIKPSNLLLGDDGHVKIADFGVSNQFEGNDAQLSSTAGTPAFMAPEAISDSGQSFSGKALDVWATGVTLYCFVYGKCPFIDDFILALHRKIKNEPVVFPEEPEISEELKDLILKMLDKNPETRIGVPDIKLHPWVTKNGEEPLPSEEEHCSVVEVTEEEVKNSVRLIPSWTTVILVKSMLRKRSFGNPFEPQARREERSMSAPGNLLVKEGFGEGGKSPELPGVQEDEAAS
Sequence of PIP5K1a(h) (Q99755 whole entry): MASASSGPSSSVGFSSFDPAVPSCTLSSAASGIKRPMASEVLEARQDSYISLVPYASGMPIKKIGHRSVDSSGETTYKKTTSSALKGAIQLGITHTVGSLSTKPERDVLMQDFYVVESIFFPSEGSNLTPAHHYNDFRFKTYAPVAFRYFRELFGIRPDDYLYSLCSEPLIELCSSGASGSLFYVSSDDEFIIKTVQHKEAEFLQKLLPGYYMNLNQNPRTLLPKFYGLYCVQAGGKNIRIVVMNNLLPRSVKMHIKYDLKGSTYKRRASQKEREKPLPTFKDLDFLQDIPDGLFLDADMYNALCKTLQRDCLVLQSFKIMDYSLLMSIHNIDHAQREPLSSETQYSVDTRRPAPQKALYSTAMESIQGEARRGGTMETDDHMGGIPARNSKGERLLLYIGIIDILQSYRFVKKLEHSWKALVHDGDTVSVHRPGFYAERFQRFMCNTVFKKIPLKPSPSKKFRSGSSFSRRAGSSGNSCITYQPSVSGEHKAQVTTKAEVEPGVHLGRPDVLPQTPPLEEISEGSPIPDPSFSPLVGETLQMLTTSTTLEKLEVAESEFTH
T3 sequence (Q00535 whole entry): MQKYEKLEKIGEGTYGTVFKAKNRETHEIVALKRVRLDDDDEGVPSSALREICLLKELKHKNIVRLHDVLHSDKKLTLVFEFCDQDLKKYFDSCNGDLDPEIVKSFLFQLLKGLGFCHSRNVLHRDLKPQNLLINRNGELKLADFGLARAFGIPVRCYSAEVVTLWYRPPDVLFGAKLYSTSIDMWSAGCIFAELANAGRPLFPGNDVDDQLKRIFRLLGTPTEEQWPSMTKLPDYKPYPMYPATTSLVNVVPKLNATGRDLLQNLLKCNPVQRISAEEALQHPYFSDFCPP
T3 sequence (Q15078 whole entry partner): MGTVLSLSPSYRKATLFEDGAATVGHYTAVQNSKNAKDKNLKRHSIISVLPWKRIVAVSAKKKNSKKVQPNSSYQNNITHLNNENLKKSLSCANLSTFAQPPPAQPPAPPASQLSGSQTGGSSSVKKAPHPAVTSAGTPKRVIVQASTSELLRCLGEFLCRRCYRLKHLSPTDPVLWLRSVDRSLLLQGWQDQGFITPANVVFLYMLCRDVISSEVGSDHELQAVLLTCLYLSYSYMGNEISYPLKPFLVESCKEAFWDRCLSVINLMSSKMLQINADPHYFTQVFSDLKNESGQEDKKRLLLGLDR
Sequence of MELK(h) (Q14680 whole entry): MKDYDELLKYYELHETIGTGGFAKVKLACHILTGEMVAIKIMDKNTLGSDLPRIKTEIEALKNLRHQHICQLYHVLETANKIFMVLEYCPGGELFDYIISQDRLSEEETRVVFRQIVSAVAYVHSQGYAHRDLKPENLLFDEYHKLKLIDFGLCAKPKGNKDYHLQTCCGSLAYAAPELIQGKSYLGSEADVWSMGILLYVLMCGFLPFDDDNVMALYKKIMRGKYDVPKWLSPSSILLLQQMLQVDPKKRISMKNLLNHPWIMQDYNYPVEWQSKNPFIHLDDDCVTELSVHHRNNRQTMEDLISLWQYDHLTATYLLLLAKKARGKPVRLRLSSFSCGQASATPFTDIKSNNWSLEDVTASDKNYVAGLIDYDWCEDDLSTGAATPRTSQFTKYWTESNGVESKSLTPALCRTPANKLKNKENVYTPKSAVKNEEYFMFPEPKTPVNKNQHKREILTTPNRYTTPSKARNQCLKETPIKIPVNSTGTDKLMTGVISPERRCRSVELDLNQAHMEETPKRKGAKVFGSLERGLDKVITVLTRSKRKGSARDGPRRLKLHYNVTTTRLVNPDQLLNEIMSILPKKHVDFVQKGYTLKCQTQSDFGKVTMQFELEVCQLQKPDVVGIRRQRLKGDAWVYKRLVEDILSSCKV

Consider `Fc1ccc(CNc2ncnc3ccc(F)cc23)cc1` [5aa, 6-Fluoro-N-(4-fluorobenzyl)-4-Quinazolinamine], for which the remaining activity at 10 µM came to 76% at CK1α(h) (setting [1]); 93% at Abl (M351T)(h) (setting [1]); 73% at CDK5/p25(h) (setting [1]); 74% at MuSK(h) (setting [1]); 95% at MARK3(h) (setting [1]); 86% at MELK(h) (setting [1]). The remaining activity at 10 µM on CDK12/cyclinK(h) (setting [1]) amounted to 84%; on PIP5K1a(h) (setting [1]) it was 104%; at PKG1β(h) (setting [1]) it was 91%; at CaMKK1(h) (setting [1]), 96%.

In the case of `Fc1ccc(CCNc2ncnc3ccc(F)cc23)cc1` [5as, 6-Fluoro-N-[2-(4-Fluorophenyl)Ethyl]-4-Quinazolinamine], the remaining activity at 10 µM was 98% at CK1α(h) (setting [2]); 73% on Abl (M351T)(h) (setting [2]); 89% at CDK5/p25(h) (setting [2]); 81% on MuSK(h) (setting [2]); 87% at MARK3(h) (setting [2]); 90% at MELK(h) (setting [2]). For the same compound, the remaining activity at 10 µM was determined as 72% on CDK12/cyclinK(h) (setting [2]), 103% at PIP5K1a(h) (setting [2]), 84% on PKG1β(h) (setting [2]) and 99% at CaMKK1(h) (setting [2]).

With `Fc1ccc2ncnc(NCCc3ccc(Cl)cc3)c2c1` [5at, N-[2-(4-Chlorophenyl)Ethyl]-6-Fluoro-4-Quinazolinamine], the remaining activity at 10 µM at CK1α(h) (setting [3]) worked out at 89%; at Abl (M351T)(h) (setting [3]), 69%; on CDK5/p25(h) (setting [3]) it was 86%; on MuSK(h) (setting [3]), 97%; on MARK3(h) (setting [3]) it was 85%; on MELK(h) (setting [3]), 73%. Further, the remaining activity at 10 µM at CDK12/cyclinK(h) (setting [3]) was 93%; on PIP5K1a(h) (setting [3]), 104%; at PKG1β(h) (setting [3]), 76%; on CaMKK1(h) (setting [3]), 91%.

Take `COc1ccc2ncnc(Nc3cccc(F)c3)c2c1` [5ay, N-(3-Fluorophenyl)-6-Methoxy-4-Quinazolinamine]: the remaining activity at 10 µM on CK1α(h) (setting [4]) was determined as 100%; at Abl (M351T)(h) (setting [4]), 76%; at CDK5/p25(h) (setting [4]), 80%; at MuSK(h) (setting [4]), 70%; on MARK3(h) (setting [4]), 89%; at MELK(h) (setting [4]) it was 95%. The remaining activity at 10 µM at CDK12/cyclinK(h) (setting [4]) came to 69%; at PIP5K1a(h) (setting [4]), 101%; on PKG1β(h) (setting [4]) it was 94%; at CaMKK1(h) (setting [4]), 90%.

(Values after article PMC7827406, “Structure–Activity Relationship (SAR) Study of Spautin-1 to Entail the Discovery of Novel NEK4 Inhibitors” (International Journal of Molecular Sciences, 2021).)
